Assay results as given in ChEMBL document CHEMBL3108764, “Tankyrase inhibitors: potential treatment of hyperproliferative diseases” (ACS Med Chem Lett, 2014).

Columns and labels:
[1] = target: T1, Poly [ADP-ribose] polymerase tankyrase-1 (Homo sapiens, UniProt O95271); test: Inhibition of human TNKS1 incubated for 30 mins prior to substrate addition measured after 2 hrs by HTRF method
T1 sequence (O95271 whole entry): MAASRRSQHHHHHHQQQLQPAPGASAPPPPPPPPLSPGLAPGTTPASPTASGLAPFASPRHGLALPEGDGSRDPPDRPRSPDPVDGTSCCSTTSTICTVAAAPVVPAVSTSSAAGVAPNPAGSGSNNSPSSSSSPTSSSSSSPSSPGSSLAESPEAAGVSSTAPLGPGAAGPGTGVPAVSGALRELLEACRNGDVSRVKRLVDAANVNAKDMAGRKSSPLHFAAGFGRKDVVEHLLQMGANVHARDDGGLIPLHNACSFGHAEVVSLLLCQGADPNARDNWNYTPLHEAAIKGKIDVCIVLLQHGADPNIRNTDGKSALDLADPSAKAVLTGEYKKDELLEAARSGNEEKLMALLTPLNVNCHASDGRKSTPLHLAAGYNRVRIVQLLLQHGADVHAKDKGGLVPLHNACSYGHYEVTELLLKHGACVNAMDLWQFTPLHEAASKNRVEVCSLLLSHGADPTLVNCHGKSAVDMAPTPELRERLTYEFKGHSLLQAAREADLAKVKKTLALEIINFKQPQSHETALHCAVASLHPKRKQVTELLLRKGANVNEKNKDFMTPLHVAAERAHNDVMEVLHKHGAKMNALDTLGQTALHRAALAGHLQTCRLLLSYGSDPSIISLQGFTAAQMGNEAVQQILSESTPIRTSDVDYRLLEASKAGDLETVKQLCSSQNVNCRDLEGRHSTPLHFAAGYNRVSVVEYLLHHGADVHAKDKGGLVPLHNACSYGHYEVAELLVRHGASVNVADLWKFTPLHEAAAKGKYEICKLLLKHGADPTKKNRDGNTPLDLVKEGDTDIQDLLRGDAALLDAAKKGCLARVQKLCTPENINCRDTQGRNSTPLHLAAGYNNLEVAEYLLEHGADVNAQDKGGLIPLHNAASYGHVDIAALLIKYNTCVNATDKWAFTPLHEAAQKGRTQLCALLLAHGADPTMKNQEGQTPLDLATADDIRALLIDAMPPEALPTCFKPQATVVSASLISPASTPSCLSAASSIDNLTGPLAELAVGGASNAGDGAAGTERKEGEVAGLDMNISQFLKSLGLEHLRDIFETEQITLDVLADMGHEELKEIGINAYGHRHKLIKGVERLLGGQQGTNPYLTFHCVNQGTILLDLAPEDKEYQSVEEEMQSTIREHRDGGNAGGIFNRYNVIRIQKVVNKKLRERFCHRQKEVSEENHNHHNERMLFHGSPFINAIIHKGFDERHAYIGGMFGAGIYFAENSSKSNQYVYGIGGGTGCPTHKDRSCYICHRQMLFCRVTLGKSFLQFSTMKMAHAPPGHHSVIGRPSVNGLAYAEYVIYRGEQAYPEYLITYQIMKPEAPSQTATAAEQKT

[2] = target: T1, Poly [ADP-ribose] polymerase tankyrase-1; test: Inhibition of human TNKS1 after 1 to 2 hrs by fluorescence polarization method

SMILES: Cc1c(F)ccc2c1c(=O)n(C[C@H]1CC[C@H](C(=O)O)CC1)c(=O)n2Cc1cccc(C(F)(F)F)c1C#N
- IC50 [1]: 0.0501 µM
- IC50 [2]: 0.00631 µM

SMILES: Cc1cccc2c1c(=O)n(C[C@H]1CC[C@@H](C(=O)O)CC1)c(=O)n2Cc1cccc(C(F)(F)F)c1C#N
- IC50 [1]: 0.316 µM

SMILES: N#Cc1c(Cn2c(=O)n(C[C@H]3CC[C@H](C(=O)O)CC3)c(=O)c3ccccc32)cccc1C(F)(F)F
- IC50 [1]: 0.0316 µM
- IC50 [2]: 0.00794 µM
